# Assay results published in patent US8034781B2, “Angiotensin-(1-7) and angiotensin-(1-7) agonists for inhibition of cancer cell growth” (Wake Forest University Health Sciences, priority 2002, dated 2011).
# Square brackets hold non-standard residues; d marks the D form. Ends that are not written are not given here. Sar = CNCC(=O)O
# Columns and labels:
# [1] = test system: SK-LU-1 lung cancer cells; format: cell-based, human; details: for effect on serum-stimulated 3H-thymidine incorporation: SK-LU-1, peptide at 1 or 100 nM (FIG. 8); for effect of antagonist on inhibition of serum-stimulated growth by Ang-(1-7): SK-LU-1 (FIG. 7)
# Description: (§6) Cells were grown in DMEM with 10% fetal bovine serum (FBS), 100 μg/mL penicillin and 100 units/mL streptomycin in a humidified 37° C. incubator gassed with 5% CO2 and 95% room air. Cells were grown to subconfluence in either 24-well cluster plates or 100 mm dishes and made quiescent by treatment for 48 h with serum-depleted growth media, prior to the experiments outlined below to measure cell growth (^3H-thymidine incorporation), cell signaling or apoptosis.
# ERK1 = ERK1 phosphorylation in VSMCs, phospho-specific antibodies; format: cell-based, rat
# Description: (§1) Reactions were terminated with Triton lysis buffer (50 mM Tris-HCl, pH 7.4, 1% Triton X-100, 100 mM NaCl, 5 mM EDTA, 50 mM NaF, 0.6 μM leupeptin, 0.01 mM Na3VO4 and 0.1 mM PMSF) and protein concentrations determined (Lowry, O. H., et al., J. Biol. Chem., 1951, 193:265-275). Proteins were separated by SDS polyacrylamide gel electrophoresis and transferred to polyvinyl membranes. The activation and autophosphorylation of ERK1 and ERK2 was determined using antibodies specific for the phosphorylated kinases (using antibodies from Cell Signaling Technologies). The immunoreactive product were visualized by enhanced chemiluminescence (ECL, Amersham) and quantified by densitometry, using the MCID image analysis system. The phospho-MAP kinase antibodies only recognize the catalytically activated and phosphorylated forms of MAP kinase (both ERK1 and ERK2 MAP kinase). The blots were also probed with antibodies to ERK1/2, to control for protein loading.
# (§2) The activity of the MAP kinases ERK1 and ERK2 in VSMCs was measured using phospho-specific antibodies that only recognize the activated protein kinases.
# ERK2 = ERK2 phosphorylation in VSMCs, phospho-specific antibodies; format: cell-based, rat
# Description: as §1, §2
# [2] = test system: vascular smooth muscle cells (VSMCs); format: cell-based, Sprague-Dawley rats; details: for effect of antagonist on Ang-(1-7) attenuation of serum-stimulated thymidine incorporation: 1 μM Ang-(1-7), FBS (FIG. 2)
# Description: (§3) Vascular smooth muscle cells were isolated form 12-14 week old Sprague-Dawley rats by explant culture (Freeman, E. J. et al., Hypertension, 1996, 28:104-108). Human lung and breast cancer cell lines were obtained from American Type Tissue Culture (ATTC) and included cells of the SK-LU-1 and A549 cell lines (both of which are derived from adenocarcinomas) as well as SK-MES-1 cells (derived from non-small cell lung tumors) and ZR-75-1 breast cancer cells.
# (§4) Cells were grown in DMEM with 10% fetal bovine serum (FBS), […] in a humidified 37° C. incubator gassed with 5% CO2 and 95% room air. Cells were grown to subconfluence in either 24-well cluster plates or 100 mm dishes and made quiescent by treatment for 48 h with serum-depleted growth media, prior to the experiments outlined below to measure cell growth (^3H-thymidine incorporation), cell signaling or apoptosis.
# To measure ^3H-thymidine incorporation, quiescent cells were incubated with serum and angiotensin peptides for 24 h at 37° C. ^3H-thymidine (0.25 μCi/well) was added and the cells incubated for an additional 4 h to incorporate the radiolabeled nucleotide. Subsequently, the cell monolayer was washed with cold phosphate-buffered saline (PBS; 50 mM NaPO4, 120 mM NaCl, pH=7.2). The adherent cells were precipitated with cold 10% TCA (4° C. for 30 min) and dissolved in 0.2% SDS in 0.1 N NaOH. Incorporated ^3H-thymidine was determined by liquid scintillation spectrometry, as previously described (Freeman, E. J. et al., Hypertension, 1996, 28:104-108). Growth inhibition was defined as a reduction in the amount of ^3H-thymidine incorporation as compared to the mitogen-stimulated controls.
# During an additional 4 h, cell monolayers were pulsed with ^3H-thymidine (0.25 μCi/well) and harvested.
# [3] = test system: vascular smooth muscle cells (VSMCs); assay: Total cell number of VSMCs by Coulter counter; format: cell-based, Sprague-Dawley rats; details: Ang II alone
# Description: Total cell number in response to treatment with Ang-(1-7) was also determined using a Coulter counter. The number of cells per well increased to 142% of basal following treatment with 1% serum.
# [4] = test system: vascular growth stimulated by balloon catheter injury to the rat carotid artery; details: previous studies with rats, 24 μg/kg/hr; cited from earlier work
# AT2 angiotensin receptor = molecular target: T1, AT2 angiotensin receptor (Homo sapiens, UniProt P50052); details: cited from earlier work
# T1 sequence (P50052 1-363): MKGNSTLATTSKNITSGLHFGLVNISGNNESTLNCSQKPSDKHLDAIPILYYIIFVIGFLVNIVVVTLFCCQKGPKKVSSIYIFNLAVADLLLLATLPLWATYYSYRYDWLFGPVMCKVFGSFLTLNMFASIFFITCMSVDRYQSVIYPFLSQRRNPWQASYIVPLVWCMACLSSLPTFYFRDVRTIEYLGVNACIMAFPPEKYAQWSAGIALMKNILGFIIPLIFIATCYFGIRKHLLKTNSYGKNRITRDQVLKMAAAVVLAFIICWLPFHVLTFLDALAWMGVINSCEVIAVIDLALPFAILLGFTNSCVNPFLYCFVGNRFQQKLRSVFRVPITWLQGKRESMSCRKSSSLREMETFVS
# [5] = test system: SK-MES-1 lung cancer cells; format: cell-based, human
# Description: as §6
# To measure ^3H-thymidine incorporation, quiescent cells were incubated with serum and angiotensin peptides for 24 h at 37° C. ^3H-thymidine (0.25 μCi/well) was added and the cells incubated for an additional 4 h to incorporate the radiolabeled nucleotide. Subsequently, the cell monolayer was washed with cold phosphate-buffered saline (PBS; 50 mM NaPO4, 120 mM NaCl, pH=7.2). […] Incorporated ^3H-thymidine was determined by liquid scintillation spectrometry, as previously described (Freeman, E. J. et al., Hypertension, 1996, 28:104-108). […]
# [6] = test system: vascular growth stimulated by balloon catheter injury to the rat carotid artery; assay: Balloon catheter injury to the rat carotid artery, intravenous minipump infusion; format: in vivo
# Source text: (§5) In these same animals, the cross-sectional area of the neointima was reduced to 0.09±0.01 mm^2 as compared to 0.12±0.02 mm^2 in saline-treated controls (p<0.05).
# [7] = as above; format: in vivo; details: rat, plasma, 24 ug/kg/h; intravenous minipump 24 μg/kg/h, 12 days, carotid artery-injured rats
# Source text: as §5
# [8] = test system: ZR-75-1 breast cancer cells; format: cell-based, human
# Description: as §3, §4
# To measure ^3H-thymidine incorporation, quiescent cells were incubated with serum and angiotensin peptides for 24 h at 37° C. ^3H-thymidine (0.25 μCi/well) was added and the cells incubated for an additional 4 h to incorporate the radiolabeled nucleotide. […] Incorporated ^3H-thymidine was determined by liquid scintillation spectrometry, as previously described (Freeman, E. J. et al., Hypertension, 1996, 28:104-108). […]
# AT1 angiotensin receptor = details: cited from earlier work
# [9] = maximal stimulation by 1 μM Ang II
# [10] = lisinopril 20 mg/kg/day for 14 days
molecule,measurement,setting,value
DRVYIHPFHL [Ang I],effect on serum-stimulated 3H-thymidine incorporation,[1],ineffective
Val-Tyr-Ile-His-Pro (VYIHP; listed as Homo sapiens) [Ang-(3-7)],effect on serum-stimulated 3H-thymidine incorporation,[1],ineffective
PDGF,increase of ERK1 activity over basal,ERK1; 10 ng/mL PDGF,16 fold
same,increase of ERK2 activity over basal,ERK2; 10 ng/mL PDGF,26 fold
Cc1cc(Cn2cnc3c2C[C@@H](C(=O)O)N(C(=O)C(c2ccccc2)c2ccccc2)C3)ccc1N(C)C [PD 123319],effect of antagonist on Ang-(1-7) attenuation of serum-stimulated thymidine incorporation,[2]; VSMCs,not prevented
Arg-Val-Tyr-Ile-His-Pro-Phe (RVYIHPF; listed as Homo sapiens) [Ang-(2-8)],effect on serum-stimulated 3H-thymidine incorporation,[1],ineffective
Asp-Arg-Val-Tyr-Ile-His-Pro-Phe (DRVYIHPF; listed as Homo sapiens) [Ang II],increase in ERK1 phosphorylation over basal,ERK1; [9],37 fold
same,effect on serum-stimulated 3H-thymidine incorporation,[1],ineffective
same,effect on 3H-thymidine incorporation into VSMCs,"[2]; peptide alone, dose response (FIG. 1)",dose-dependent stimulation
same,number of cells per well,[3],145 % of basal
same,increase in ERK2 phosphorylation over basal,ERK2; [9],166 fold
Val-Tyr-Ile-His-Pro-Phe (VYIHPF; listed as Homo sapiens) [Ang-(3-8)],effect on serum-stimulated 3H-thymidine incorporation,[1],ineffective
"CC[C@H](C)[C@H](NC(=O)[C@H](Cc1ccc(O)cc1)NC(=O)[C@@H](NC(=O)[C@H](CCCNC(=N)N)NC(=O)[C@@H](N)CC(=O)O)C(C)C)C(=O)N[C@@H](Cc1c[nH]cn1)C(=O)N1CCC[C@H]1C(=O)O [Ang-(1-7), Asp-Arg-Val-Tyr-Ile-His-Pro]","change in weight, blood pressure, or heart rate",[4],no change
same,IC50 levels at the AT2 angiotensin receptor,AT2 angiotensin receptor,micromolar range
same,IC50,[5],0.4 nM
same,blood pressure,[6]; Ang-(1-7) infusion vs saline,similar
same,heart rate,[6]; Ang-(1-7) infusion vs saline,similar
same,level at time molar at 288 h,[7],0.131 ± 0.0397 nM
same,IC50,[8],0.02 nM
same,IC50,[1],0.05 nM
Asp-Arg-Val-Tyr-Ile-His-[D]Ala (DRVYIH[dA]) [[D-Ala^7]-Ang-(1-7)],competition at the AT2 receptor,AT2 angiotensin receptor,poor competitor
same,competition at the AT1 receptor,AT1 angiotensin receptor,poor competitor
same,effect of antagonist on inhibition of serum-stimulated growth by Ang-(1-7),[1],blocked
same,effect of antagonist on Ang-(1-7) attenuation of serum-stimulated thymidine incorporation,[2]; VSMCs,blocked
C#CCCCCCCCCCCCCCCCC(=O)O [17-octadecynoic acid],effect on growth inhibition by Ang-(1-7),"[2]; VSMCs, cytochrome P450 inhibitor",neither a lipoxygenase inhibitor nor the cytochrome P450 inhibitor 17-octadecynoic acid had any effect
CCCCC[C@H](O)/C=C/[C@@H]1[C@H]2C/C(=C/CCCC(=O)O)C[C@H]2C[C@H]1O [carbacyclin],effect on serum-stimulated 3H-thymidine incorporation,"[2]; VSMCs, 5 μM (FIG. 10)",reduction
"CCN(CC)CC.Nc1ncnc2c1ncn2[C@@H]1O[C@@H]2COP(O)(=S)O[C@H]2[C@H]1O (some centres unmarked) [Rp-cAMPS, Rp-adenosine-3′,5′-cyclic monphosphophorothioate triethylamine salt]",effect on reduction in serum-stimulated 3H-thymidine incorporation by Ang-(1-7) or carbacyclin,"[2]; VSMCs, pretreatment 10 μM (FIG. 10)",completely blocked
"CCc1nc2c(C)cc(C)nc2n1Cc1ccc(-c2ccccc2-c2nn[nH]n2)cc1 [L158,809]",effect of antagonist on Ang-(1-7) attenuation of serum-stimulated thymidine incorporation,[2]; VSMCs,unaffected
Cc1cc(Cn2cnc3c2CC(C(=O)O)N(C(=O)C(c2ccccc2)c2ccccc2)C3)ccc1N (centres unmarked) [PD123177],effect of antagonist on inhibition of serum-stimulated growth by Ang-(1-7),[1],"neither AT1 nor AT2 angiotensin receptor antagonists Losartan and PD123177, respectively, were effective"
same,effect of antagonist on Ang-(1-7) attenuation of serum-stimulated thymidine incorporation,[2]; VSMCs,unaffected
Sar-Arg-Val-Tyr-Ile-His-Pro-Thr ([Sar]RVYIHPT) [[Sar^1-Thr^8]-Ang II],effect of antagonist on Ang-(1-7) attenuation of serum-stimulated thymidine incorporation,[2]; VSMCs,completely blocked
CCCCc1nc(Cl)c(CO)n1Cc1ccc(-c2ccccc2-c2nn[nH]n2)cc1 [Losartan],effect of antagonist on inhibition of serum-stimulated growth by Ang-(1-7),[1],"neither AT1 nor AT2 angiotensin receptor antagonists Losartan and PD123177, respectively, were effective"
NCCCC[C@H](N[C@@H](CCc1ccccc1)C(=O)O)C(=O)N1CCC[C@H]1C(=O)O [lisinopril],cross-sectional area of the neointima,[6]; [10],0.09±0.01 mm^2
same,elevation of plasma levels of Ang-(1-7) vs saline,[6]; [10],2.3 fold
same,plasma levels of Ang-(1-7),"[6]; lisinopril 20 mg/kg/day for 14 days, balloon catheter injury",99.1 ± 6.7 pM
